Measurements as given in paper PMC6214715 (Journal of veterinary pharmacology and therapeutics, 2018).
Like-named read-outs stand apart in the source and are kept apart here.

Assays:
dog liver microsomes = format: in vitro ADME; details: for formation to metabolism ratio: DLMs, formation rate from (±)-tramadol (Perez Jimenez, 2016) / rate of (+)-M5 formation from the (+)-metabolite; for Km / Vmax: formation of (+)-M5 from substrate
human liver microsomes = format: in vitro ADME; details: human liver microsomes; formation rate from (±)-tramadol (Perez Jimenez, 2016) / rate of (+)-M5 formation from the (+)-metabolite
cat liver microsomes = format: in vitro ADME; details: for formation to metabolism ratio: feline liver microsomes, formation rate from (±)-tramadol (Perez Jimenez, 2016) / rate of (+)-M5 formation from the (+)-metabolite
[1] = rats, after tramadol administration; ref Sheikholeslami, 2016; cited from earlier work
[2] = test system: (+)-M5 formation from (+)-M2 in pooled DLMs; assay: in vitro; details: dog
CYP2D15 [3] = biological target: T1, CYP2D15 (Canis lupus familiaris, UniProt Q29473); assay: in vitro; details: dog, recombinant enzyme
T1 sequence (Q29473 1-500): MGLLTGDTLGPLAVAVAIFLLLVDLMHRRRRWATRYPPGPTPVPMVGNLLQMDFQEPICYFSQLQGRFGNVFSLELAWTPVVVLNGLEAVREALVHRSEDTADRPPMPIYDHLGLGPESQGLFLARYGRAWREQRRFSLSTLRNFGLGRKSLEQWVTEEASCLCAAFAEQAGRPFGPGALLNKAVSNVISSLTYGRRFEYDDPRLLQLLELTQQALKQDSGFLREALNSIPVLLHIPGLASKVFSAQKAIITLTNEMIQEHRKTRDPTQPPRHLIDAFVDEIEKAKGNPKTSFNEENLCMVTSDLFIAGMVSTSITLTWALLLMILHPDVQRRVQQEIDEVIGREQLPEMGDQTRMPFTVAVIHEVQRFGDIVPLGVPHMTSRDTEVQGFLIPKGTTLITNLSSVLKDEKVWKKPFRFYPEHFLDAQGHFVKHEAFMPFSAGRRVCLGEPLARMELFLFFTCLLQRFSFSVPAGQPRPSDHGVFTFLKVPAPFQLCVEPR

CYP2D15 [4] = biological target: T1, CYP2D15; format: in vitro ADME, canine; details: recombinant CYP2D15; (+)-M1 10 μM, (+)-M2 0.5 μM
CYP2D15 [5] = details: CYP2D15 mediated dextromethorphan o-demethylation in DLMs; ref Aidasani, 2008; cited from earlier work
[6] = test system: (+)-M5 formation from (+)-M1 in pooled DLMs; assay: in vitro; details: dog
CYP2C21 = biological target: T2, CYP2C21 (Canis lupus familiaris, UniProt P56594); assay: in vitro; details: dog, recombinant enzyme
T2 sequence (P56594 1-487): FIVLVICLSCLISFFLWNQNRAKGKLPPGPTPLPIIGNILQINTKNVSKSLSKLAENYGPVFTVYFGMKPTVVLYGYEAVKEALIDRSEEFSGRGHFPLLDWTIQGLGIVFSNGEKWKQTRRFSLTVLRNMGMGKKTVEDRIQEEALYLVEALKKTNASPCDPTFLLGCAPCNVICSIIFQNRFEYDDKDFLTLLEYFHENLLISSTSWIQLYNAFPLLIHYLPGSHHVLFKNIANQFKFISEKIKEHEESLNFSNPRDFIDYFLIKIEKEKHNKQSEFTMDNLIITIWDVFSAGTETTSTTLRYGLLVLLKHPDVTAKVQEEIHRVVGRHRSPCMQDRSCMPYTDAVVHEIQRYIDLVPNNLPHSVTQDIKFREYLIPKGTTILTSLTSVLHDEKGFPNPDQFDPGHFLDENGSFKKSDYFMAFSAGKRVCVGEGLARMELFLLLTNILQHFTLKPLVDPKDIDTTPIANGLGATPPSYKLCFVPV

[7] = dogs, after tramadol administration; ref Kukanich, 2011; Giorgi, 2009; cited from earlier work
μ-opioid = details: in vitro testing; ref Gillen, 2000; cited from earlier work
[8] = dog urine; ref Lintz, 1981; cited from earlier work

SMILES: CNCC1CCCCC1(O)c1cccc(OC)c1 (centres unmarked) [M2, N-desmethyltramadol]
- formation to metabolism ratio (dog liver microsomes): 3.1
- formation to metabolism ratio (human liver microsomes): 2.9
- formation to metabolism ratio (cat liver microsomes): 1.7
- CSF to plasma concentration ratio [1]: 0.4

SMILES: C=C[C@H]1C[N@@]2CC[C@H]1C[C@@H]2[C@@H](O)c1ccnc2ccc(OC)cc12 [quinidine]
- inhibition at 5 min, 10 μM [2]: > 70%
- inhibition at 5 min, 10 μM (CYP2D15 [3]): > 70%

SMILES: CNCC1CCCCC1(O)c1cccc(OC)c1 (single isomer, unassigned; (+)) [(+)-M2, (+)-N-desmethyltramadol]
- Km (dog liver microsomes; Dog 10 liver microsomes): 0.46 µM
- Vmax (dog liver microsomes; Dog 10 liver microsomes): 27 pmol/min/mg protein
- Km (dog liver microsomes; Dog 31 liver microsomes): 0.39 µM
- Vmax (dog liver microsomes; Dog 31 liver microsomes): 23 pmol/min/mg protein
- Km (dog liver microsomes; Dog 46 liver microsomes): 0.38 µM
- Vmax (dog liver microsomes; Dog 46 liver microsomes): 39 pmol/min/mg protein
- Km (dog liver microsomes; pDLM (liver microsomes pooled from 59 dogs)): 0.56 µM
- Vmax (dog liver microsomes; pDLM (pooled from 59 dogs)): 50 pmol/min/mg protein
- (+)-M5 formation rate (in words) (dog liver microsomes; pooled dog liver microsomes (n = 59), (+)-M1 at 10 μM, (+)-M2 at 0.5 μM): highest activities
- (+)-M5 formation rate (in words) (cat liver microsomes; pooled cat liver microsomes (n = 16), (+)-M1 at 10 μM, (+)-M2 at 0.5 μM): intermediate between human and DLMs
- formation rate of (+)-M5 (in words) (CYP2D15 [4]): only detected for CYP2D15

SMILES: CC(=O)N1CCN(c2ccc(OCC3COC(Cn4ccnc4)(c4ccc(Cl)cc4Cl)O3)cc2)CC1 (centres unmarked) [ketoconazole]
- IC50 (CYP2D15 [5]): 470 nM

SMILES: Nc1ccc(S(=O)(=O)Nc2ccnn2-c2ccccc2)cc1 [sulfaphenazole]
- inhibition at 20 min, 100 μM [6]: > 50%
- inhibition at 5 min, 100 μM [2]: < 50%
- inhibition at 20 min, 100 μM (CYP2C21): > 50%
- inhibition at 5 min, 100 μM (CYP2D15 [3]): < 50%

SMILES: COc1cccc(C2(O)CCCCC2CN(C)C)c1 (centres unmarked) [tramadol, reference compound]
- CSF to plasma concentration ratio [1]: 0.44

SMILES: CN(C)C[C@H]1CCCC[C@]1(O)c1cccc(O)c1 [M1, O-desmethyltramadol]
- formation to metabolism ratio (dog liver microsomes): 42
- formation to metabolism ratio (human liver microsomes): 71
- formation to metabolism ratio (cat liver microsomes): 1926
- CSF to plasma concentration ratio [1]: 0.3

SMILES: CNCC1CCCCC1(O)c1cccc(O)c1 (centres unmarked) [M5, N,O-didesmethyltramadol]
- plasma concentration higher than M1 concentrations [7]: about 20 fold
- weaker μ-opioid agonist efficacy and potency compared with M1 (μ-opioid): about 30 times
- M5 and M5 conjugates as a percentage of total metabolites in urine [8]: 43%
- CSF to plasma concentration ratio [1]: less than 0.1
- CSF to plasma ratio less than M1 [1]: 3 fold
